≈ marks a conversion by molar mass, not a printed value.
How the values were obtained:
[1] = tested on: Mycobacterium avium; conditions: 104 mc'2 3
[2] = tested on: Mycobacterium avium; conditions: isolate MAV4
[3] = tested on: Mycobacterium avium subsp. avium ATCC 25291
[4] = tested on: Mycobacterium avium; conditions: 104
[5] = tested on: Mycobacterium avium; conditions: isolate MAV4; remark: listed apart in the source
[6] = tested on: Mycobacterium avium; conditions: isolate MAV3
[7] = tested on: Mycobacterium avium; conditions: isolate MAV4; remark: listed apart in the source
Description: Inhibition of multidrug resistance efflux pump in Mycobacterium avium isolate MAV4 assessed as potentiation of clarithromycin -induced antibacterial activity by measuring clarithromycin MIC at 1/2 MIC incubated for 3 days by MTT assay

[8] = tested on: Mycobacterium avium; conditions: isolate MAV2
[9] = tested on: Mycobacterium avium; assay: Antimycobacterial activity against Mycobacterium avium isolate MAV2 assessed as reduction in bacterial viability incubated for 3 days by MTT assay; format: organism-based; conditions: 72 h
[10] = tested on: Mycobacterium avium; conditions: 104; remark: listed apart in the source
Description: Inhibition of multidrug resistance efflux pump in Mycobacterium avium 104 assessed as potentiation of clarithromycin -induced antibacterial activity by measuring clarithromycin MIC at 1/4 MIC incubated for 3 days by MTT assay

[11] = tested on: Mycobacterium avium; conditions: 104 mc'2 4
[12] = tested on: Mycobacterium avium; conditions: isolate MAV2; remark: listed apart in the source
Description: Inhibition of multidrug resistance efflux pump in Mycobacterium avium isolate MAV2 assessed as potentiation of clarithromycin -induced antibacterial activity by measuring clarithromycin MIC at 1/4 MIC incubated for 3 days by MTT assay (Rvb = >1024 ug/ml)

[13] = tested on: Mycobacterium avium; conditions: isolate MAV1
[14] = tested on: Mycobacterium avium; conditions: 104 mc'2 4; remark: listed apart in the source
[15] = tested on: Mycobacterium avium; conditions: isolate MAV4; remark: listed apart in the source
[16] = tested on: Mycobacterium avium; conditions: isolate MAV3; remark: listed apart in the source
[17] = tested on: Mycobacterium avium; conditions: 104 mc'2 3; remark: listed apart in the source
[18] = tested on: Mycobacterium avium subsp. avium ATCC 25291; remark: listed apart in the source
Description: Inhibition of multidrug resistance efflux pump in Mycobacterium avium ATCC 25291 assessed as potentiation of clarithromycin -induced antibacterial activity by measuring clarithromycin MIC at 1/2 MIC incubated for 3 days by MTT assay

[19] = tested on: Mycobacterium avium subsp. avium ATCC 25291; remark: listed apart in the source
Description: Inhibition of multidrug resistance efflux pump in Mycobacterium avium ATCC 25291 assessed as potentiation of clarithromycin -induced antibacterial activity by measuring clarithromycin MIC at 1/4 MIC incubated for 3 days by MTT assay

[20] = tested on: Mycobacterium avium; conditions: isolate MAV1; remark: listed apart in the source
Description: Inhibition of multidrug resistance efflux pump in Mycobacterium avium isolate MAV1 assessed as potentiation of ofloxacin-induced antibacterial activity by measuring ofloxacin MIC at 1/2 MIC incubated for 3 days by MTT assay (Rvb = 4 ug/ml)

[21] = tested on: Mycobacterium avium; conditions: 104; remark: listed apart in the source
Description: Inhibition of multidrug resistance efflux pump in Mycobacterium avium 104 assessed as potentiation of clarithromycin -induced antibacterial activity by measuring clarithromycin MIC at 1/2 MIC incubated for 3 days by MTT assay

[22] = tested on: Mycobacterium avium; conditions: 104 mc'2 3; remark: listed apart in the source
[23] = tested on: Mycobacterium avium; conditions: 104; remark: listed apart in the source
[24] = tested on: Mycobacterium avium subsp. avium ATCC 25291; remark: listed apart in the source
[25] = tested on: Mycobacterium avium; conditions: 104 mc'2 3; remark: listed apart in the source
[26] = tested on: Mycobacterium avium subsp. avium ATCC 25291; remark: listed apart in the source
Description: Inhibition of multidrug resistance efflux pump in Mycobacterium avium ATCC 25291 assessed as potentiation of ethidium bromide-induced antibacterial activity by measuring ethidium bromide MIC at 1/4 MIC incubated for 3 days by MTT assay

[27] = tested on: Mycobacterium avium; conditions: in vivo, 72 h
Description: Antimycobacterial activity against Mycobacterium avium 104 mc'2 4 assessed as reduction in bacterial viability incubated for 3 days by MTT assay

[28] = tested on: Mycobacterium avium; conditions: in vivo, 72 h; remark: listed apart in the source
Description: Antimycobacterial activity against Mycobacterium avium 104 mc'2 3 assessed as reduction in bacterial viability incubated for 3 days by MTT assay

[29] = tested on: Mycolicibacterium smegmatis; assay: Antimycobacterial activity against Mycobacterium smegmatis str. MC2 155 assessed as reduction in bacterial viability incubated for 3 days by MTT assay; format: organism-based; conditions: 72 h
[30] = tested on: Mycobacterium avium; conditions: 104 mc'2 3; remark: listed apart in the source
[31] = tested on: Mycobacterium avium subsp. avium ATCC 25291; remark: listed apart in the source
[32] = tested on: Mycobacterium avium; conditions: 104 mc'2 4; remark: listed apart in the source
[33] = tested on: Mycobacterium avium; conditions: 104; remark: listed apart in the source
[34] = tested on: Mycobacterium avium subsp. avium ATCC 25291; remark: listed apart in the source
[35] = tested on: Mycobacterium avium; conditions: isolate MAV2; remark: listed apart in the source
[36] = tested on: Mycobacterium avium; conditions: 104 mc'2 4; remark: listed apart in the source
[37] = tested on: Mycobacterium avium; conditions: 104; remark: listed apart in the source
[38] = tested on: Mycobacterium avium; conditions: 104 mc'2 4; remark: listed apart in the source
[39] = Safety index, ratio of MTC for test compound to MTC for thioridazine for cytotoxicity in human monocyte-derived macrophages; format: cell-based, Macrophage cell line
[40] = tested on: Mycobacterium avium; conditions: isolate MAV3; remark: listed apart in the source
[41] = tested on: Mycobacterium avium; conditions: isolate MAV2; remark: listed apart in the source
[42] = tested on: Mycobacterium avium; conditions: isolate MAV1; remark: listed apart in the source
[43] = tested on: Mycobacterium avium; assay: Antimycobacterial activity against Mycobacterium avium ATCC 25291 assessed as reduction in bacterial viability incubated for 3 days by MTT assay; format: organism-based; conditions: mycobacterium avium subsp. avium atcc 25291, 72 h
[44] = tested on: Mycobacterium avium; conditions: 104; remark: listed apart in the source
[45] = tested on: Mycobacterium avium; conditions: 104; remark: listed apart in the source
[46] = tested on: Mycobacterium avium; conditions: isolate MAV1; remark: listed apart in the source
Description: Inhibition of multidrug resistance efflux pump in Mycobacterium avium isolate MAV1 assessed as potentiation of ofloxacin-induced antibacterial activity by measuring ofloxacin MIC at 1/4 MIC incubated for 3 days by MTT assay (Rvb = 4 ug/ml)

[47] = tested on: Mycobacterium avium subsp. avium ATCC 25291; remark: listed apart in the source
[48] = tested on: Mycobacterium avium; conditions: isolate MAV1; remark: listed apart in the source
[49] = tested on: Mycobacterium avium; conditions: 104 mc'2 4; remark: listed apart in the source
[50] = tested on: Mycobacterium avium; conditions: isolate MAV1; remark: listed apart in the source
[51] = tested on: Mycobacterium avium; conditions: isolate MAV1; remark: listed apart in the source
[52] = tested on: Mycobacterium avium; conditions: isolate MAV4; remark: listed apart in the source
[53] = tested on: Mycobacterium avium; conditions: isolate MAV3; remark: listed apart in the source
[54] = tested on: Mycobacterium avium; conditions: isolate MAV4; remark: listed apart in the source
Description: Inhibition of multidrug resistance efflux pump in Mycobacterium avium isolate MAV4 assessed as potentiation of ethidium bromide-induced antibacterial activity by measuring ethidium bromide MIC at 1/4 MIC incubated for 3 days by MTT assay

[55] = tested on: Mycobacterium avium; conditions: isolate MAV2; remark: listed apart in the source
[56] = tested on: Mycobacterium avium; conditions: isolate MAV3; remark: listed apart in the source
[57] = tested on: Mycobacterium avium; conditions: isolate MAV1; remark: listed apart in the source
[58] = tested on: Mycobacterium avium; conditions: isolate MAV2; remark: listed apart in the source
Description: Inhibition of multidrug resistance efflux pump in Mycobacterium avium isolate MAV2 assessed as potentiation of ofloxacin-induced antibacterial activity by measuring ofloxacin MIC at 1/4 MIC incubated for 3 days by MTT assay

[59] = tested on: Mycobacterium avium; conditions: 104 mc'2 4; remark: listed apart in the source
[60] = Safety index, ratio of MTC for test compound to MTC for chlorpromazine for cytotoxicity in human monocyte-derived macrophages; format: cell-based, Macrophage cell line
[61] = tested on: Mycobacterium avium; conditions: 104; remark: listed apart in the source
[62] = tested on: Mycobacterium avium; conditions: 104 mc'2 3; remark: listed apart in the source
[63] = tested on: Mycobacterium avium; conditions: isolate MAV3; remark: listed apart in the source
[64] = Safety index, ratio of CC50 for test compound to CC50 for thioridazine for cytotoxicity in human monocyte-derived macrophages; format: cell-based, Macrophage cell line
[65] = tested on: Mycobacterium avium; conditions: 104; remark: listed apart in the source
[66] = tested on: Mycobacterium avium; conditions: 104 mc'2 4; remark: listed apart in the source
[67] = tested on: Mycobacterium avium; assay: Antimycobacterial activity against Mycobacterium avium isolate MAV1 assessed as reduction in bacterial viability incubated for 3 days by MTT assay; format: organism-based; conditions: in vitro, 72 h

CCCOc1ccc(-c2cn(CCN3CCCCC3)c3ccccc3c2=O)cc1
MIC [1]: < 0.125 µg/mL | MIC [2]: < 4 µg/mL | MIC [3]: 8 µg/mL (≈ 20.5 µM) | MIC [4]: < 0.125 µg/mL | MIC [5]: 8 µg/mL (≈ 20.5 µM) | MIC [6]: 0.5 µg/mL (≈ 1.28 µM) | MIC [7]: < 0.0625 µg/mL | MIC [8]: 512 µg/mL (≈ 1310 µM) | MIC [9]: 256 µg/mL (≈ 656 µM) | MIC [10]: < 0.125 µg/mL | MIC [11]: < 0.125 µg/mL | MIC [12]: 512 µg/mL (≈ 1310 µM) | MIC [13]: 1.56 µg/mL (≈ 3.99 µM) | MIC [14]: < 0.125 µg/mL | MIC [15]: < 0.25 µg/mL | MIC [16]: 12.5 µg/mL (≈ 32 µM) | MIC [17]: < 4 µg/mL | MIC [18]: < 0.0625 µg/mL | MIC [19]: 4 µg/mL (≈ 10.2 µM) | MIC [20]: < 0.0625 µg/mL | MIC [21]: < 0.125 µg/mL | MIC [22]: < 0.195 µg/mL | MIC [23]: < 0.125 µg/mL | MIC [24]: < 1 µg/mL | MIC [25]: 2 µg/mL (≈ 5.12 µM) | MIC [26]: 12.5 µg/mL (≈ 32 µM) | MIC [27]: 256 µg/mL (≈ 656 µM) | MIC [28]: 256 µg/mL (≈ 656 µM) | MIC [29]: 256 µg/mL (≈ 656 µM) | MIC [30]: < 0.125 µg/mL | MIC [31]: < 0.5 µg/mL | MIC [32]: < 4 µg/mL | MIC [33]: < 0.125 µg/mL | MIC [34]: < 0.25 µg/mL | MIC [35]: 1 µg/mL (≈ 2.56 µM) | MIC [36]: 2 µg/mL (≈ 5.12 µM) | MIC [37]: < 0.125 µg/mL | MIC [38]: 4 µg/mL (≈ 10.2 µM) | selectivity ratio [39]: 4 to 6 | MIC [40]: 64 µg/mL (≈ 164 µM) | MIC [41]: 1 µg/mL (≈ 2.56 µM) | MIC [42]: < 4 µg/mL | MIC [43]: 256 µg/mL (≈ 656 µM) | MIC [44]: < 0.195 µg/mL | MIC [45]: < 0.125 µg/mL | MIC [46]: 1 µg/mL (≈ 2.56 µM) | MIC [47]: < 0.5 µg/mL | MIC [48]: < 0.195 µg/mL | MIC [49]: 128 µg/mL (≈ 328 µM) | MIC [50]: < 4 µg/mL | MIC [51]: < 4 µg/mL | MIC [52]: < 4 µg/mL | MIC [53]: 8 µg/mL (≈ 20.5 µM) | MIC [54]: 3.12 µg/mL (≈ 8 µM) | MIC [55]: 256 µg/mL (≈ 656 µM) | MIC [56]: 3.12 µg/mL (≈ 8 µM) | MIC [57]: < 4 µg/mL | MIC [58]: 4 µg/mL (≈ 10.2 µM) | MIC [59]: 3.12 µg/mL (≈ 8 µM) | selectivity ratio [60]: 2 to 4 | MIC [61]: < 0.195 µg/mL | MIC [62]: 3.12 µg/mL (≈ 8 µM) | MIC [63]: 16 µg/mL (≈ 41 µM) | selectivity ratio [64]: 4 to 6 | MIC [65]: < 0.125 µg/mL | MIC [66]: < 4 µg/mL | MIC [67]: 128 µg/mL (≈ 328 µM)

CCCOc1ccc(-c2cn(CCN3CCCCCC3)c3ccccc3c2=O)cc1
MIC [1]: < 0.125 µg/mL | MIC [2]: 8 µg/mL (≈ 19.8 µM) | MIC [3]: 8 µg/mL (≈ 19.8 µM) | MIC [4]: 8 µg/mL (≈ 19.8 µM) | MIC [5]: 16 µg/mL (≈ 39.5 µM) | MIC [6]: 0.5 µg/mL (≈ 1.24 µM) | MIC [7]: < 0.0625 µg/mL | MIC [8]: 512 µg/mL (≈ 1270 µM) | MIC [9]: 128 µg/mL (≈ 316 µM) | MIC [10]: 1 µg/mL (≈ 2.47 µM) | MIC [11]: < 0.125 µg/mL | MIC [12]: 256 µg/mL (≈ 633 µM) | MIC [13]: 1.56 µg/mL (≈ 3.86 µM) | MIC [14]: < 0.125 µg/mL | MIC [15]: < 0.25 µg/mL | MIC [16]: 12.5 µg/mL (≈ 30.9 µM) | MIC [17]: < 4 µg/mL | MIC [18]: < 0.0625 µg/mL | MIC [19]: 8 µg/mL (≈ 19.8 µM) | MIC [20]: < 0.0625 µg/mL | MIC [21]: < 0.125 µg/mL | MIC [22]: < 0.195 µg/mL | MIC [23]: 4 µg/mL (≈ 9.89 µM) | MIC [24]: < 1 µg/mL | MIC [25]: 2 µg/mL (≈ 4.94 µM) | MIC [26]: 6.25 µg/mL (≈ 15.4 µM) | MIC [27]: 256 µg/mL (≈ 633 µM) | MIC [28]: 256 µg/mL (≈ 633 µM) | MIC [29]: 128 µg/mL (≈ 316 µM) | MIC [30]: < 0.125 µg/mL | MIC [31]: < 0.5 µg/mL | MIC [32]: < 4 µg/mL | MIC [33]: < 4 µg/mL | MIC [34]: < 0.25 µg/mL | MIC [35]: 2 µg/mL (≈ 4.94 µM) | MIC [36]: 1 µg/mL (≈ 2.47 µM) | MIC [37]: < 4 µg/mL | MIC [38]: 2 µg/mL (≈ 4.94 µM) | selectivity ratio [39]: 4 to 6 | MIC [40]: 32 µg/mL (≈ 79.1 µM) | MIC [41]: 1 µg/mL (≈ 2.47 µM) | MIC [42]: < 4 µg/mL | MIC [43]: 256 µg/mL (≈ 633 µM) | MIC [44]: 1.56 µg/mL (≈ 3.86 µM) | MIC [45]: < 4 µg/mL | MIC [46]: 2 µg/mL (≈ 4.94 µM) | MIC [47]: < 0.5 µg/mL | MIC [48]: < 0.195 µg/mL | MIC [49]: 32 µg/mL (≈ 79.1 µM) | MIC [50]: < 4 µg/mL | MIC [51]: < 4 µg/mL | MIC [52]: < 2 µg/mL | MIC [53]: 4 µg/mL (≈ 9.89 µM) | MIC [54]: 3.12 µg/mL (≈ 7.72 µM) | MIC [55]: 32 µg/mL (≈ 79.1 µM) | MIC [56]: 0.78 µg/mL (≈ 1.93 µM) | MIC [57]: < 4 µg/mL | MIC [58]: 2 µg/mL (≈ 4.94 µM) | MIC [59]: 0.39 µg/mL (≈ 0.964 µM) | selectivity ratio [60]: 2 to 4 | MIC [61]: < 0.195 µg/mL | MIC [62]: 0.78 µg/mL (≈ 1.93 µM) | MIC [63]: 16 µg/mL (≈ 39.5 µM) | selectivity ratio [64]: 4 to 6 | MIC [65]: < 4 µg/mL | MIC [66]: < 4 µg/mL | MIC [67]: 128 µg/mL (≈ 316 µM)
